Data as given in paper PMC7588595, “Small-molecule active pharmaceutical ingredients of approved cancer therapeutics inhibit human aspartate/asparagine-β-hydroxylase” (Bioorganic & Medicinal Chemistry, 2020).
Structures can show the parent of a compound that is named as a salt. Where two headings read alike, the source gives them in different places.

Biological target: T1, human AspH (His6-AspH315–758) (Homo sapiens, UniProt Q12797)
T1 construct: N-Terminally His6-tagged human AspH315–758 (His6-AspH315–758) was produced in Escherichia coli BL21 (DE3) cells; made in house; host or cells: Escherichia coli BL21 (DE3), pET-28a(+) vector
T1 sequence (Q12797 315-758): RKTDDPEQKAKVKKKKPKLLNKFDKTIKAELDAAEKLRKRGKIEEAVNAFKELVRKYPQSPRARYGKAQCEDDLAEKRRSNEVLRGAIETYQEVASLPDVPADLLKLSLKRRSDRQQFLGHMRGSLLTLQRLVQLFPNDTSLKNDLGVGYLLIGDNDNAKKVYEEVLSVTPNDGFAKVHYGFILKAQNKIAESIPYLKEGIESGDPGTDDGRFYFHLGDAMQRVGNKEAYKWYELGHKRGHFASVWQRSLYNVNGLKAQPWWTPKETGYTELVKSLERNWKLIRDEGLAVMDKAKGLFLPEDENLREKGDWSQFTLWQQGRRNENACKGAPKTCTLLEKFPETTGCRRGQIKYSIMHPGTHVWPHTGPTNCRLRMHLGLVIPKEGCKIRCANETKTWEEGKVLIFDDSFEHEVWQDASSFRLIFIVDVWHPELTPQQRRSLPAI
Assay: SPE-MS AspH inhibition assay (hFX-CP101-119 substrate hydroxylation)
Assay type: biochemical
Conditions: for Plate 1 (% inhibition) / Plate 1 (% conversion) / Plate 1-duplicate (% inhibition) / Plate 1-duplicate (% conversion): AspH-inhibitor screening; for Plate 1 (% inhibition): 384-well Plate 1; for Plate 1 (% conversion): 384-well Plate 1, substrate conversion; for Plate 1-duplicate (% conversion): substrate conversion

[1] = 50 nM His6-AspH315–758, 1 μM hFX-CP101–119, 100 μM LAA, 3 μM 2OG, 2 μM FAS, 50 mM HEPES pH 7.5, 20 °C, read-out: IC50
[2] = read-out: IC50 at 10 μM substrate, 10 μM hFX-CP101–119 and 10 μM 2OG instead of 1 μM hFX-CP101–119 and 3 μM 2OG
[3] = read-out: IC50 at 20 μM Fe(II), 20 μM Fe(II) instead of 2 μM Fe(II)
[4] = read-out: IC50 at 200 μM 2OG, 200 μM 2OG instead of 3 μM 2OG

## CN(C)C(=N)NC(=N)N.Cl [Metformin hydrochloride aq]
  Plate 1 (% inhibition): 5.05%
  Plate 1 (% conversion): 47.42%
  Plate 1-duplicate (% inhibition): 7.45%
  Plate 1-duplicate (% conversion): 48.35%

## CN(Cc1cnc2nc(N)nc(N)c2n1)c1ccc(C(=O)N[C@@H](CCC(=O)O)C(=O)O)cc1 [Methotrexate]
  Plate 1 (% inhibition): 15.11%
  Plate 1 (% conversion): 42.77%
  Plate 1-duplicate (% inhibition): 17.38%
  Plate 1-duplicate (% conversion): 43.42%

## COc1c2occc2cc2ccc(=O)oc12 [Methoxsalen]
  Plate 1 (% inhibition): 0.45%
  Plate 1 (% conversion): 49.54%
  Plate 1-duplicate (% inhibition): 1.60%
  Plate 1-duplicate (% conversion): 51.25%

## C[C@H]1C[C@@H]2[C@H]([C@@H](O)C[C@@]3(C)[C@H]2CC[C@]3(O)C(=O)CO)[C@@]2(C)C=CC(=O)C=C12 [Methylprednisolone]
  Plate 1 (% inhibition): 8.67%
  Plate 1 (% conversion): 45.75%
  Plate 1-duplicate (% inhibition): 6.32%
  Plate 1-duplicate (% conversion): 48.91%

## CO[C@@H]1[C@H](N(C)C(=O)c2ccccc2)C[C@H]2O[C@]1(C)n1c3ccccc3c3c4c(c5c6ccccc6n2c5c31)C(=O)NC4 [Midostaurin, reference compound]
[1]
  IC50: 9.43 ± 3.07 µM
[2]
  IC50: 6.02 ± 1.32 µM
[3]
  IC50: 7.28 ± 0.9 µM
[4]
  IC50: 12.4 ± 2.9 µM

## CO[C@@]12[C@H](COC(N)=O)C3=C(C(=O)C(C)=C(N)C3=O)N1C[C@@H]1N[C@@H]12 [Mitomycin]
  Plate 1 (% inhibition): 1.59%
  Plate 1 (% conversion): 49.02%
  Plate 1-duplicate (% inhibition): 2.59%
  Plate 1-duplicate (% conversion): 50.76%

## Clc1ccc(C(c2ccccc2Cl)C(Cl)Cl)cc1 (stereo not shown) [Mitotane]
  Plate 1 (% inhibition): 14.44%
  Plate 1 (% conversion): 43.08%
  Plate 1-duplicate (% inhibition): 17.86%
  Plate 1-duplicate (% conversion): 43.18%

## O=C1c2c(O)ccc(O)c2C(=O)c2c(NCCNCCO)ccc(NCCNCCO)c21 [Mitoxantrone]
  Plate 1 (% inhibition): -29.89%
  Plate 1 (% conversion): 63.55%
  Plate 1-duplicate (% inhibition): -22.19%
  Plate 1-duplicate (% conversion): 63.05%

## CC1(C)CNc2cc(NC(=O)c3cccnc3NCc3ccncc3)ccc21.O=P(O)(O)O.O=P(O)(O)O [Motesanib Diphosphate (AMG-706)]
  Plate 1 (% inhibition): 35.35%
  Plate 1 (% conversion): 33.43%
  Plate 1-duplicate (% inhibition): 26.44%
  Plate 1-duplicate (% conversion): 38.93%

## CCNC(=O)c1noc(-c2cc(C(C)C)c(O)cc2O)c1-c1ccc(CN2CCOCC2)cc1 [NVP-AUY922]
  Plate 1 (% inhibition): -7.77%
  Plate 1 (% conversion): 53.34%
  Plate 1-duplicate (% inhibition): -12.32%
  Plate 1-duplicate (% conversion): 58.15%

## Cn1c(=O)n(-c2ccc(C(C)(C)C#N)cc2)c2c3cc(-c4cnc5ccccc5c4)ccc3ncc21 [NVP-BEZ235_Dactolisib]
  Plate 1 (% inhibition): 5.14%
  Plate 1 (% conversion): 47.38%
  Plate 1-duplicate (% inhibition): 3.83%
  Plate 1-duplicate (% conversion): 50.14%

## CCN1CCN(c2ccc(Nc3cc(N(C)C(=O)Nc4c(Cl)c(OC)cc(OC)c4Cl)ncn3)cc2)CC1 [NVP-BGJ398]
  Plate 1 (% inhibition): -4.10%
  Plate 1 (% conversion): 51.64%
  Plate 1-duplicate (% inhibition): -20.49%
  Plate 1-duplicate (% conversion): 62.20%

## Cc1c(C(=O)Nc2ccc(N3C[C@@H](C)O[C@@H](C)C3)nc2)cccc1-c1ccc(OC(F)(F)F)cc1.O=P(O)(O)O.O=P(O)(O)O [NVP-LDE225 (Diphosphate salt)]
  Plate 1 (% inhibition): -20.13%
  Plate 1 (% conversion): 59.05%
  Plate 1-duplicate (% inhibition): -19.69%
  Plate 1-duplicate (% conversion): 61.81%

## COc1nc(N)nc2c1ncn2[C@@H]1O[C@H](CO)[C@@H](O)[C@@H]1O [Nelarabine]
  Plate 1 (% inhibition): -1.21%
  Plate 1 (% conversion): 50.31%
  Plate 1-duplicate (% inhibition): 1.44%
  Plate 1-duplicate (% conversion): 51.33%

## Cc1cn(-c2cc(NC(=O)c3ccc(C)c(Nc4nccc(-c5cccnc5)n4)c3)cc(C(F)(F)F)c2)cn1 [Nilotinib]
  Plate 1 (% inhibition): -10.38%
  Plate 1 (% conversion): 54.54%
  Plate 1-duplicate (% inhibition): -7.89%
  Plate 1-duplicate (% conversion): 55.95%

## CC1(C)NC(=O)N(c2ccc([N+](=O)[O-])c(C(F)(F)F)c2)C1=O [Nilutamide]
  Plate 1 (% inhibition): 4.05%
  Plate 1 (% conversion): 47.88%
  Plate 1-duplicate (% inhibition): 4.06%
  Plate 1-duplicate (% conversion): 50.03%

## COc1ccc(C2=N[C@@H](c3ccc(Cl)cc3)[C@@H](c3ccc(Cl)cc3)N2C(=O)N2CCNC(=O)C2)c(OC(C)C)c1 [Nutlin-3]
  Plate 1 (% inhibition): -13.27%
  Plate 1 (% conversion): 55.88%
  Plate 1-duplicate (% inhibition): -5.84%
  Plate 1-duplicate (% conversion): 54.94%

## COc1cccc2cc(-c3nc([C@H]4CC[C@H](C(=O)O)CC4)n4ncnc(N)c34)[nH]c12 [OSI-027]
  Plate 1 (% inhibition): -4.91%
  Plate 1 (% conversion): 52.02%
  Plate 1-duplicate (% inhibition): -2.62%
  Plate 1-duplicate (% conversion): 53.34%

## C[C@]1(O)C[C@@H](c2nc(-c3ccc4ccc(-c5ccccc5)nc4c3)c3c(N)nccn32)C1 [OSI-906_Linsitinib]
  Plate 1 (% inhibition): 4.66%
  Plate 1 (% conversion): 47.60%
  Plate 1-duplicate (% inhibition): -12.38%
  Plate 1-duplicate (% conversion): 58.18%

## COc1c/c(=C2\C=c3ccccc3=N2)[nH]/c1=C\c1[nH]c(C)cc1C.CS(=O)(=O)O [Obatoclax, reference compound]
[1]
  IC50: 13.2 ± 3.1 µM
20 μM fixed inhibitor concentration
  remaining activity at 20 µM: ~20%
dose-response curves of SPE-MS AspH inhibition assay
  Hill coefficient of AspH inhibition curves: < -2.0
[2]
  IC50: 9.44 ± 3.16 µM
[3]
  IC50: 11.9 ± 0.8 µM
[4]
  IC50: 16.4 ± 4.6 µM

## O=C(c1cc(Cc2n[nH]c(=O)c3ccccc23)ccc1F)N1CCN(C(=O)C2CC2)CC1 [Olaparib]
  Plate 1 (% inhibition): 15.27%
  Plate 1 (% conversion): 42.70%
  Plate 1-duplicate (% inhibition): 14.14%
  Plate 1-duplicate (% conversion): 45.03%

## COC(=O)C[C@](O)(CCCC(C)(C)O)C(=O)O[C@@H]1C(OC)=C[C@]23CCCN2CCc2cc4c(cc2[C@H]13)OCO4 [Omacetaxine mepesuccinate]
  Plate 1 (% inhibition): -1.21%
  Plate 1 (% conversion): 50.31%
  Plate 1-duplicate (% inhibition): 6.33%
  Plate 1-duplicate (% conversion): 48.90%

## C=CC(=O)Nc1cc(Nc2nccc(-c3cn(C)c4ccccc34)n2)c(OC)cc1N(C)CCN(C)C [Osimertinib]
  Plate 1 (% inhibition): 34.01%
  Plate 1 (% conversion): 34.05%
  Plate 1-duplicate (% inhibition): 33.73%
  Plate 1-duplicate (% conversion): 35.31%

## O=C(O)C(=O)O.[NH-][C@@H]1CCCC[C@H]1[NH-].[Pt+2] [Oxaliplatin]
  Plate 1 (% inhibition): 8.19%
  Plate 1 (% conversion): 45.97%
  Plate 1-duplicate (% inhibition): 11.28%
  Plate 1-duplicate (% conversion): 46.45%

## C=CCc1cccc(/C=N/NC(=O)CN2CCN(Cc3ccccc3)CC2)c1O [PAC-1]
  Plate 1 (% inhibition): 3.72%
  Plate 1 (% conversion): 48.03%
  Plate 1-duplicate (% inhibition): -0.37%
  Plate 1-duplicate (% conversion): 52.23%

## C=CC(=O)N1CCC[C@@H](n2nc(-c3ccc(Oc4ccccc4)cc3)c3c(N)ncnc32)C1 [PCI-32765_Ibrutinib]
  Plate 1 (% inhibition): 0.65%
  Plate 1 (% conversion): 49.45%
  Plate 1-duplicate (% inhibition): -9.59%
  Plate 1-duplicate (% conversion): 56.80%

## CC(=O)c1c(C)c2cnc(Nc3ccc(N4CCNCC4)cn3)nc2n(C2CCCC2)c1=O [PD-0332991]
  Plate 1 (% inhibition): 1.12%
  Plate 1 (% conversion): 49.23%
  Plate 1-duplicate (% inhibition): -1.13%
  Plate 1-duplicate (% conversion): 52.60%

## Nc1nccc(-c2c(-c3ccc(F)cc3)ncn2C2CCCCC2)n1 [PF670462]
  Plate 1 (% inhibition): 40.03%
  Plate 1 (% conversion): 31.27%
  Plate 1-duplicate (% inhibition): 29.89%
  Plate 1-duplicate (% conversion): 37.22%

## Nc1ncnc2c1c(COc1cccc(Cl)c1)nn2C1CCOCC1 [PF4800567 hydrochloride]
  Plate 1 (% inhibition): -0.85%
  Plate 1 (% conversion): 50.14%
  Plate 1-duplicate (% inhibition): 0.27%
  Plate 1-duplicate (% conversion): 51.91%

## CN(c1ccccc1CNc1nc(Nc2ccc3c(c2)CC(=O)N3)ncc1C(F)(F)F)S(C)(=O)=O [PF 431396]
  Plate 1 (% inhibition): 1.90%
  Plate 1 (% conversion): 48.87%
  Plate 1-duplicate (% inhibition): -4.64%
  Plate 1-duplicate (% conversion): 54.34%

## Cn1cc(-c2[nH]c3cc(NC(=O)[C@H](N)C4CCCCC4)cc4c3c2C=NNC4=O)cn1 [PF 477736]
  Plate 1 (% inhibition): -54.30%
  Plate 1 (% conversion): 74.83%
  Plate 1-duplicate (% inhibition): -54.03%
  Plate 1-duplicate (% conversion): 78.84%

## O=C(Nc1cccnc1)N1CCC(Cc2cccc(Oc3ccc(C(F)(F)F)cn3)c2)CC1 [PF-3845]
  Plate 1 (% inhibition): 5.62%
  Plate 1 (% conversion): 47.15%
  Plate 1-duplicate (% inhibition): -12.27%
  Plate 1-duplicate (% conversion): 58.13%
